Consider six substances from patent US20040254131A1, “Method for prevention or treatment of diseases or disorders related to excessive formation of vascular tissue or blood vessels” (priority 2003, published 2004).

The test system of series [1] is rat NPY Y2 mRNA. Put plainly: Hyperoxia/ischemia-induced retinal neovascularization (retinopathy) in newborn rats. It is filed as in vivo. The settings on record: for retinal capillary vessel formation in fluorescein images (FIG. 3): fluorescence microscopy of flat-mounted retinas; for Mean ± SD of quantitated neovascularization (amount of retinal vessels crossed by a constant length line): newborn Sprague Dawley rats, cyclic hyperoxia 40%/80% then room air, intraperitoneal treatment, eyes collected at age 20 days. The source says: The present study was undertaken to determine the impact of NPY Y2 receptor targeted intervention on neovascularization and development of retinopathy. Development of retinopathy was induced to newborn rats by cyclic hyperoxia and following relative ischemia-induced retinal neovascularization. Hyperoxemia is toxic to developing retinal vessels causing damage and hypoxia in the retina. After moving to normal air, relative hypoxia follows further promoting neovascularization of the retina.
Three groups of rat puppies were subjected for different treatments; 1) vehicle, 2) NPY Y2 receptor targeted antisense oligonucleotide sequence, and 3) scramble oligonucleotide sequence containing the same oligonucleotides as NPY Y2 receptor targeted antisense oligonucleotide sequence. The treatments were administered intraperitoneally. The retinal vessels were investigated and retinopathic changes were compared between treatment groups.
Retinopathy was assessed after injection of fluorescent-labelled dextran to the circulation. The eyes were flat-mounted on slides and the retinal vessels were visualized and investigated by fluorescence microscopy. Statistical differences were calculated between the study groups.
Study protocol was approved by the Joint Ethics Committee of Turku University. Development of retinopathy was induced to newborn rats (Sprague Dawley) by cyclic hyperoxia and following relative ischemia. Hyperoxia is toxic to developing retinal vessels causing damage and hypoxia in the retina, which induces neovascularization. After moving to normal air, relative hypoxia follows further promoting neovascularization of the retina. Hypoxia is one of the major causes of retinal neovascularization in human retinopathies also. The newborn rats were kept in a hyperoxic incubator with their mothers. Retinal neovascularization was induced simultaneously for all three groups of puppies. One treatment group consisted originally of 7 puppies, which underwent cyclic hyperoxia at the age of 3 days, continued until at the age of 14 days and remained in normal room air from the age of 14 to 17 days. The amount of oxygen inside the incubator was kept at 40% and 80% in 12 hour cycles for 10 days (days from 3 to 13).
The three groups of puppies were subjected for different treatments; 1) plain vehicle, 2) NPY Y2 receptor targeted antisense oligodeoxynucleotide sequence (5′-CCTCTGCACCTAATGGGCCC -3′ (SEQ ID NO:38), containing 20 thioate modified bases) diluted in vehicle and 3) scramble oligodeoxynucleotide sequence containing the same deoxynucleotides as NPY Y2 receptor targeted antisense oligodeoxynucleotide sequence but in a random order (5′-CCATGGTAATCCGCCGCTCC-3′ (SEQ ID NO:39), containing 20 thioate modified bases) diluted in vehicle. The treatments were administered intraperitoneally. The retinal vessels were investigated and retinopathic changes were compared between treatment groups. The used NPY Y2 receptor targeted antisense deoxynucleotide sequence was designed complementary to next 20 bases from NPY Y2 gene transcription initiation codon (ATG).
At the age of 20 days, rats were decapitated and eyes were collected. Retinopathy and retinal neovascularization was assessed after an injection of fluorescent-labelled dextran to the circulation trough heart puncture. One eye from each puppy was used for visualization of retinal vessels. The eyes were flat-mounted on slides and the retinal vessels were visualized and investigated by fluorescence microscopy. Pictures of retinas were acquired using a Leica DMR/DC100 microscope and Leica DC Wiever software.
The amount of retinal capillaries was analyzed by counting the amount of vessels crossed by a constant length line using plot profile analysis (Image-J 2.6 program). Each retina was analyzed in 3-5 representative areas and the mean values were used for further statistical analysis. Only unfolded retinal preparations were used in order to avoid artificial images of neovascularization. […]

In series [2] the test system is hTERT-HUVEC cells. The series can be described thus: Endothelial tube formation assay after liposomal transfection. It is filed as cell-based, human. The settings on record: for mean ±SEM tube number/well, single nucleotide assay 4A / mean ±SEM tube number/well, single nucleotide assay 4b: oligonucleotide 1 μM, DOTAP/DOPE, 4 h transfection, 3 h on Matrigel; for mean ±SEM tube number/well, single nucleotide assay 4A: non-treated control 60±1.8; for mean ±SEM tube number/well, single nucleotide assay 4b: repeated set, non-treated control 58.0±2.9. How it is done:
A further experiment was carried out in order to study the effect of single antisense molecules and their combinations in the prevention of endothelial cell tube formation by immortal human umbilical vein endothelial cells (hTERT-HUVECs).
Immortal human umbilical vein endothelial cells (hTERT-HUVECs) were obtained from Geron Corporation (Menlo Park, Calif., U.S.A.). hTERT-HUVECs were maintained on a gelatin-coated 100-mm dishes (Corning Costar, N.Y., U.S.A) in growth medium, composed of M199 medium (Gibco, Paisley, Scotland) supplement with 15% (v/v) heat-inactivated fetal bovine serum (Gibco BRL), 2 mM L-glutamine (Gibco BRL), 100 units/ml penicillin/streptomycin (Gibco BRL), 10 units/ml heparin (Sigma) and 20 μg/ml endothelial cell growth factor (Roche Biomolecules) at 37° C. in a humified incubator with 5% CO2 atmosphere. Experiments were performed with cells between passages 20 and 24.
The following phosphorothioate oligonucleotides were synthesized: human neuropeptide Y2-receptor mRNA antisense molecules
N-(1-(2,3-dioleoyloxy)propyl)-N,N,N-trimethyl ammonium methylsulfate (DOTAP) and 1,2-dioleoyl-3-phosphatidylethanolamine (DOPE) were purchased from Avanti Polar Lipids. Cationic liposomes composed of DOTAP/DOPE (1:1 by mol) were prepared as previously described (Ruponen et al., 2001 (43)).
hTERT-HUVECs (5×10^4 cells/well) were seeded onto gelatin-coated 48-multiwell plates (Corning Costar, N.Y., U.S.A) and incubated overnight. For transfection, the growth medium was replaced with 400 μl of transfection medium (M199 medium supplement with 2 mM L-glutamine and 100 units/ml penicillin/streptomycin). Oligonucleotides (final concentration 1 μM) and DOTAP/DOPE liposomes in sterile water were first diluted in MES-HEPES buffered saline (50 mM MES, 50 mM HEPES, 75 mM NaCl, pH 7.2) and then mixed together at a charge ratio +1. The transfection mixture was allowed to stand at room temperature for 20 min and the oligonucleotide/liposome complexes (100 μl) were added dropwise to each well.
After transfection for 4 h hTERT-HUVECs were harvested after trypsin treatment, suspended in growth medium (200 μl) and seeded in growth factor-reduced Matrigel (BD Biosciences) coated 96-well plates (Corning Costar, N.Y., U.S.A). After incubation for 3 h cells were fixed in 4% paraformaldehyde. The formation of tubular structures in each well (7 fields/well) was digitally captured using a Nicon Eclipse TE300 Inverted Microscope (Nicon, Tokyo, Japan) equipped with a Nicon F-601 digital camera (Nicon, Tokyo, Japan). Photographs were taken at 4× magnification.
The efficacy in prevention of formation of tubular structures by hTERT-HUVECs of all 5 synthesized antisense molecules were compared against each others alone and in combination. The number of tubular structures was analyzed by using Adobe Photoshop 5.5 (Adobe Systems Inc., San Jose, Calif., U.S.A) and the results were expressed as means ±SEM of three independent experiments. A set of three experiments was repeated.

In the case of “5′-CCATGGTAATCCGCCGCTCC-3′ (CCATGGTAATCCGCCGCTCC; DNA, all phosphorothioate, methylation of C not given here; listed as Rattus sp.) [Scramble, scramble oligodeoxynucleotide, same deoxynucleotides as the Y2 antisense in random order, reference compound]”, in series [1], the “retinal capillary vessel formation in fluorescein images (FIG. 3)” value is “irregular and disrupted”; the “Mean ± SD of quantitated neovascularization (amount of retinal vessels crossed by a constant length line)” value turned out to be 31.12 ± 0.93. The “difference in retinal neovascularization versus vehicle treatment group” value in series [1] (post hoc comparison) was “no difference”.

As for “5′-CCCAGGTTATCCACGTCTCC-3′ (DNA, all phosphorothioate, methylation of C not given here; listed as Homo sapiens) [AS-1 control, control oligonucleotide for AS-1, reference compound]”, in series [2], the “mean ±SEM tube number/well, single nucleotide assay 4A” value is 49.3±8.2 tube number/well and the “mean ±SEM tube number/well, single nucleotide assay 4b” value is on record as 57.0±7.0 tube number/well.

For “5′-CCTCTGCACCTAATGGGCCC -3′ (antisense CCTCTGCACCTAATGGGCCC; DNA, all phosphorothioate, methylation of C not given here; listed as Rattus sp.) [Y2-antisense, NPY Y2 receptor targeted antisense oligodeoxynucleotide corresponding to rat NPY Y2 mRNA]”, in series [1], the “retinal capillary vessel formation in fluorescein images (FIG. 3)” value is “regular and continuous”; the “Mean ± SD of quantitated neovascularization (amount of retinal vessels crossed by a constant length line)” value was 24.58 ± 0.84. The “mean difference in neovascularization compared to vehicle treatment group” value in series [1] (post hoc Tukey HSD, p<0.001, 95% CI 2.48-8.33) is on record as 5.40. The “mean difference in neovascularization compared to scramble treatment group” value in series [1] (post hoc Tukey HSD, p<0.001, 95% CI 3.76-9.31) is on record as 6.53.

For the substance “5′-CCTCTGCACCTATTGGACCC-3′ (DNA, all phosphorothioate, methylation of C not given here; listed as Homo sapiens) [AS-1, human neuropeptide Y2-receptor mRNA antisense molecule]”, in series [2], the “mean ±SEM tube number/well, single nucleotide assay 4A” value was determined as 44.0±5.6 tube number/well and the “mean ±SEM tube number/well, single nucleotide assay 4b” value turned out to be 54.3±10.1 tube number/well.

Take “5′-GGCCACTGTTCTTTCTGACC-3′ (DNA, all phosphorothioate, methylation of C not given here; listed as Homo sapiens) [AS-3, human neuropeptide Y2-receptor mRNA antisense molecule]”: the “efficacy in prevention of tubular structures formation by hTERT-HUVECs (ranking in words)” value in series [2] (FIGS. 4A-4D) is “best efficacy”. In addition, in series [2], the “mean ±SEM tube number/well, single nucleotide assay 4A” value is on record as 28±7.1 tube number/well and the “mean ±SEM tube number/well, single nucleotide assay 4b” value is recorded as 23.0±6.7 tube number/well.

With “5′-GTTTGTGGCCCGTATTGTTCC-3′ (DNA, all phosphorothioate, methylation of C not given here; listed as Homo sapiens) [AS-2, human neuropeptide Y2-receptor mRNA antisense molecule]”, in series [2], the “mean ±SEM tube number/well, single nucleotide assay 4A” value worked out at 70.3±11.3 tube number/well and the “mean ±SEM tube number/well, single nucleotide assay 4b” value was determined as 75.0±7.5 tube number/well.
